Patent publication US12636294B2, “Compositions and methods for the treatment or prevention of traumatic brain injury” (priority 2019, dated 2026)

Tests used:
[1] = after inhalation; general statement, no experiment described; cited from earlier work
[2] = system: rat model of TBI induced by controlled cortical impact (CCI); assay: Rotarod test, motor function after CCI injury; format: in vivo, Sprague-Dawley (SD) rats; settings: observed; for E (normalised activity value used to calculate synergy), Rotarod latencies: (X-placebo)/(sham-placebo); for Latency: Rotarod 7-days post-head injury, CBD 20 mg/kg I.P LD + MD x 6, isoflurane 1.5% inhaled LD
Description: (§1) The effect of cannabidiol (CBD) combined with isoflurane therapy was assessed using a rat model of TBI induced by controlled cortical impact (CCI). Briefly, Sprague-Dawley (SD) rats were anaesthetised with 3% pentobarbital sodium before fixing the head in a stereotaxic frame. After performing a craniotomy, a contusion injury (CCI) was induced with an IMP-3000 TBI Impactor with a diameter of 5.0 mm, a depth of 2.5 mm, dwell time of 100 ms and velocity of 5 m/s. Control rats underwent the same surgical procedure, including craniotomy, without CCI.
(§2) The randomised groups are detailed in Table 2.
(§3) Behavioural outcomes following CCI were assessed using the Morris Water Maze (MWM), which assesses cognitive defects after CCI injury (see, e.g., Nunez, 2008, Journal of Visualized Experiments, 897) and the Rotarod test, which assesses changes in motor function (see, e.g., Shiotsuki et al., 2010, Journal of Neuroscience Methods, 189: 180-185).
(§4) The combinatorial neuroprotective effects of CBD and isoflurane were assessed using a rat controlled cortical impact model of TBI. Briefly, head injury is induced in the rats by first performing a craniotomy to remove a small disc of bone from the skull and then using a pneumatic rod to directly impact the exposed brain. Controlled Cortical Impact (CCI) parameters used in this study were 2.5 mm depth, 5 m/s velocity, 100 ms dwell time. Sham control animals underwent an identical surgical procedure, including craniotomy, but without the CCI injury.
(§5) Animals were treated with CBD (20 mg/kg) and isoflurane (1.5%) both alone and in combination (Table 2). A loading dose comprising CBD and isoflurane was administered sequentially, with CBD administered 15-30 min post injury and isoflurane administered 1-2 h after injury. Daily maintenance doses of CBD were administered for six consecutive days after administration of the loading dose.
(§6) To determine the neuroprotective effects associated with the combination of CBD and isoflurane, the MWM, a well-established assay for investigation of spatial learning and memory (Nunez, 2008, supra; D'Hooge et al., 2001, Brain Research Reviews, 36: 60-90), and the Rotarod, a device used to monitor motor coordination (Deacon, 2013, Journal of Visualized Expreiments, e2609-e2609; Shitosuki et al., 2010, supra), were used 7-days post-head injury. The predicted combinatorial effects of CBD and isoflurane were calculated using the Bliss independence principle using the equation: Epred A+B=(EA+EB)−(EAEB)
(§7) The activity of the combination for this equation was calculated as: (X−placebo)/(sham−placebo)

[3] = system: rat model of TBI induced by controlled cortical impact (CCI); assay: Morris Water Maze (MWM), spatial learning and memory after CCI injury; format: in vivo, Sprague-Dawley (SD) rats; settings: observed; for E (normalised activity value used to calculate synergy), MWM proportion of rats that reached the platform / E (normalised activity value used to calculate synergy), MWM instances of rats reaching the platform: (X-placebo)/(sham-placebo); for E (normalised activity value used to calculate synergy), MWM instances of rats reaching the platform: 7-days post-head injury; for Instances of centre of rat corresponding to platform location normalised to the number of rats in group / Number of rats that reached the platform normalised to the total number of rats in each group: MWM 7-days post-head injury; for Instances of centre of rat corresponding to platform location normalised to the number of rats in group: CBD 20 mg/kg I.P LD 15-30 min post-injury + MD x 6, isoflurane 1.5% inhaled LD at 1 hr post-injury; for Number of rats that reached the platform normalised to the total number of rats in each group: CBD 20 mg/kg I.P LD + MD x 6, isoflurane 1.5% inhaled LD
Description: as §1, §2, §3, §4, §5, §6, §7
In the MWM a rat is trained to recognise where a platform is located in a water tank over a series of days. It is then released into the tank and monitored for the ability to locate the platform. A lack of ability to locate the platform is indicative of a spatial memory neurocognitive deficit.

[4] = general statement, no experiment described; cited from earlier work

SMILES	Time to achieve significant CNS concentrations [1]	E (normalised activity value used to calculate synergy), Rotarod latencies [2]	Latency [2] [s]	E (normalised activity value used to calculate synergy), MWM proportion of rats that reached the platform [3]	E (normalised activity value used to calculate synergy), MWM instances of rats reaching the platform [3]	Instances of centre of rat corresponding to platform location normalised to the number of rats in group [3]	Number of rats that reached the platform normalised to the total number of rats in each group [3]	Lipid solubility [4]
C=C(C)[C@@H]1CCC(C)=C[C@H]1c1c(O)cc(CCCCC)cc1O [CBD, cannabidiol]	within two minutes	−0.04	17.60	0.21	−0.2	0.4	0.4	–
FC(F)OC(Cl)C(F)(F)F (stereo not drawn) [isoflurane]	–	−0.09	17.33	0.50	0.67	0.83	0.5	–
COC(F)(F)C(Cl)Cl [Methoxyflurane, methoxyflurane]	≤ 2 min	–	–	–	–	–	–	highly lipid-soluble
